Key:
Assay in all cases: SILAC LC-MS ATP acyl phosphate probe competition, native kinases in HEK293T
Type in all cases: binding
[1] = biological target: T1, FER (Proto-oncogene tyrosine-protein kinase FER) (Homo sapiens, UniProt P16591); settings: site Lys1 (K591); ATP 1 mM; Ketanserin, Ritanserin 100 μM; RF001 1 mM
T1 construct: measured against >50 native kinases quantified in HEK293T soluble proteomes; endogenous in cells; host or cells: HEK293T soluble proteome
Outline: (§1)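 Light and heavy SILAC HEK293T proteomes (2 mg/ml in kinase buffer) were pre-treated with DMSO or compound (50× stock in DMSO) for 30 min at 25° C, then mixed 1:1, reduced, alkylated and digested with trypsin/Lys-C. Desthiobiotin-labelled peptides were avidin-enriched and analysed by LC-MS/MS on an Orbitrap, top-10 data-dependent acquisition.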

[2] = biological target: T2, KS6B2 (Ribosomal protein S6 kinase 2) (Homo sapiens, UniProt Q9UBS0); settings: site Lys2; ATP 1 mM; Ketanserin, Ritanserin 100 μM; RF001 1 mM
T2 construct: measured against >50 native kinases quantified in HEK293T soluble proteomes; endogenous in cells; host or cells: HEK293T soluble proteome
T2 sequence (Q9UBS0 whole entry): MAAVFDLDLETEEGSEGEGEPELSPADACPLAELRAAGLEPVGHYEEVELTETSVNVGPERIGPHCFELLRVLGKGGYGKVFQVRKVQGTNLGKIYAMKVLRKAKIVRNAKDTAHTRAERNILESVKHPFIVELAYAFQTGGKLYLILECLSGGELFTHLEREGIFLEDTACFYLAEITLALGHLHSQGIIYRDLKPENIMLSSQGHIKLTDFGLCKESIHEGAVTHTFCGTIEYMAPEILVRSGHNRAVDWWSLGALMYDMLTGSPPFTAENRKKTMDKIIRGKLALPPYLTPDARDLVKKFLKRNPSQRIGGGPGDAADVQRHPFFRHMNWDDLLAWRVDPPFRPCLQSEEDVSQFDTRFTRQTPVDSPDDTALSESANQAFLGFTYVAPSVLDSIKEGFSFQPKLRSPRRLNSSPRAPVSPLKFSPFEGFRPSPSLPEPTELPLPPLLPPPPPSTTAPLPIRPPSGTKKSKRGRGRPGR
Outline: as §1

[3] = biological target: T3, MP2K3 (Dual specificity mitogen-activated protein kinase kinase 3) (Homo sapiens, UniProt P46734); settings: site Lys2; ATP 1 mM; Ketanserin, Ritanserin 100 μM; RF001 1 mM
T3 construct: Native kinases; endogenous in cells; host or cells: HEK293T soluble proteome
T3 sequence (P46734 1-347): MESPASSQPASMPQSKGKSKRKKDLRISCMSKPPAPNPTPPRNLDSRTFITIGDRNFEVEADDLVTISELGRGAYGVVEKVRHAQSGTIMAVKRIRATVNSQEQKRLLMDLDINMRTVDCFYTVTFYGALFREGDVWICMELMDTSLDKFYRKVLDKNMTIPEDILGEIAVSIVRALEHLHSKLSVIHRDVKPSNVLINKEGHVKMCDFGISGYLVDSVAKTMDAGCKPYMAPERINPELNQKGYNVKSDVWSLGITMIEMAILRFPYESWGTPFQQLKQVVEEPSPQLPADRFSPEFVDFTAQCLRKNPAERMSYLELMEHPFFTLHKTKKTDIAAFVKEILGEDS
Outline: as §1

[4] = biological target: T4, SLK (CTCL tumor antigen se20-9) (Homo sapiens, UniProt Q9H2G2); settings: site Lys2; ATP 1 mM; Ketanserin, Ritanserin 100 μM; RF001 1 mM
T4 construct: Native kinases; endogenous in cells; host or cells: HEK293T soluble proteome
T4 sequence (Q9H2G2 whole entry): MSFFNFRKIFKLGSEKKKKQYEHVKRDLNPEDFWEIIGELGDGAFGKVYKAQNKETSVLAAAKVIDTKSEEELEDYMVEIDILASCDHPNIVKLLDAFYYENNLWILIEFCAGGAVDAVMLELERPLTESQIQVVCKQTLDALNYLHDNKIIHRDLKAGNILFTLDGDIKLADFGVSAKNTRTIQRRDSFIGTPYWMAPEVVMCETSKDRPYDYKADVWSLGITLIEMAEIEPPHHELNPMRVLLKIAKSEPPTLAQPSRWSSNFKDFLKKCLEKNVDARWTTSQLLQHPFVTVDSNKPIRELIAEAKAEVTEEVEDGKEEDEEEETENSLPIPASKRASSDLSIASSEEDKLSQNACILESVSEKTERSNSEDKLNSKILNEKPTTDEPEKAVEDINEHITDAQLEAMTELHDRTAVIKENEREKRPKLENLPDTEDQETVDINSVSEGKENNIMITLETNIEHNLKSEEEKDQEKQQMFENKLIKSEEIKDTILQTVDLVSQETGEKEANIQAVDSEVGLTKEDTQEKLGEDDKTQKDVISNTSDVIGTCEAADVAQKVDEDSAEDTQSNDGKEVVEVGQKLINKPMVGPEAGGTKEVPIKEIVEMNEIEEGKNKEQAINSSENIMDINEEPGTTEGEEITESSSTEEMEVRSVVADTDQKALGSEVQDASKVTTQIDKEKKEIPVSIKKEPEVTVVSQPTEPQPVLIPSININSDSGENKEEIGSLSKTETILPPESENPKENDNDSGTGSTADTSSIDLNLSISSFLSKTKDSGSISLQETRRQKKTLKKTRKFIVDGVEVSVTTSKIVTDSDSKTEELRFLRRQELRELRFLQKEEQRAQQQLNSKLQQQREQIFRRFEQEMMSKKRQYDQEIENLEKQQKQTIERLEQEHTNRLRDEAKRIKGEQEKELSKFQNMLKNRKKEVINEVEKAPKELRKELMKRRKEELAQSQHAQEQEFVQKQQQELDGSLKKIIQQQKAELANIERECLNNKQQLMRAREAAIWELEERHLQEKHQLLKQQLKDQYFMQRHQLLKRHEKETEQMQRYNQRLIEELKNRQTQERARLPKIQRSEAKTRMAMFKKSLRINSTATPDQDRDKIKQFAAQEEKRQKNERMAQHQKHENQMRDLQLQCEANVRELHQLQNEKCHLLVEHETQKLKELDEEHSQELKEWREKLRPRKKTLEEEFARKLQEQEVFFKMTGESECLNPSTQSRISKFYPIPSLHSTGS
Outline: as §1

[5] = biological target: T5, ULK3 (Unc-51-like kinase 3) (Homo sapiens, UniProt Q6PHR2); settings: site Lys1; ATP 1 mM; Ketanserin, Ritanserin 100 μM; RF001 1 mM
T5 construct: Native kinases; endogenous in cells; host or cells: HEK293T soluble proteome
T5 sequence (Q6PHR2 1-472): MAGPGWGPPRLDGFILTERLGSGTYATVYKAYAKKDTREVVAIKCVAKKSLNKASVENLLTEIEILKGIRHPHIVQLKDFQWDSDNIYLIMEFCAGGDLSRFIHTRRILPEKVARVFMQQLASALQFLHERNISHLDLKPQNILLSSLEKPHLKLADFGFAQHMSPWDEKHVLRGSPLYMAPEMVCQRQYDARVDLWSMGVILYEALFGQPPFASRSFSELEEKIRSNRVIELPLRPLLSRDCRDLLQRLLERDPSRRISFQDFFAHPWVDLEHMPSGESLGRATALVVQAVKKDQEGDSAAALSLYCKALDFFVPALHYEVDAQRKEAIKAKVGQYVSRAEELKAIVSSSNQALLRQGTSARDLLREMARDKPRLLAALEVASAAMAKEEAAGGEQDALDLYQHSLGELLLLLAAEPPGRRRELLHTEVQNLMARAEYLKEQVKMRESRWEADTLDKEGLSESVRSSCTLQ
Outline: as §1

T1 sequence (P16591 whole entry): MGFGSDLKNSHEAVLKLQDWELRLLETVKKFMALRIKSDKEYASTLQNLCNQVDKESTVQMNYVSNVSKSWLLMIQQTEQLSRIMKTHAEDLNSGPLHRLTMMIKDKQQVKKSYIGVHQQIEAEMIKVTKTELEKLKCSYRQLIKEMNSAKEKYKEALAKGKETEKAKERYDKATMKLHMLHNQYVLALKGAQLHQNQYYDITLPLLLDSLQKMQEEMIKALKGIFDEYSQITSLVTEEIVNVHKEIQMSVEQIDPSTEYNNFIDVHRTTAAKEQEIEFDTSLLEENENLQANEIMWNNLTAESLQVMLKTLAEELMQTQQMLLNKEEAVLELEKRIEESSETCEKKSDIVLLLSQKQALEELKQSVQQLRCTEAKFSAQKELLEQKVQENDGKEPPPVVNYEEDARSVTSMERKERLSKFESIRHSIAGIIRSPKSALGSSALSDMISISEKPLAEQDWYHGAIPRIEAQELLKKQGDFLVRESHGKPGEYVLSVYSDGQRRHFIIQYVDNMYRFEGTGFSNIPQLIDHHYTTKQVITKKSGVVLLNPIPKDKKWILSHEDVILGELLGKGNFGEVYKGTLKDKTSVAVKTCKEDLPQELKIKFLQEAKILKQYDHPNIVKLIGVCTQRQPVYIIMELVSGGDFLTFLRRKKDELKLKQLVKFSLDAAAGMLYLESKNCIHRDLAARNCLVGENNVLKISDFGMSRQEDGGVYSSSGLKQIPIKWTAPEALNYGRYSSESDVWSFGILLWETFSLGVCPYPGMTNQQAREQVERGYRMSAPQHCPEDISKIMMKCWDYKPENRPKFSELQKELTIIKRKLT

| SILAC ratio, FER probe-modified peptide [1] | SILAC ratio, KS6B2 probe-modified peptide [2] | SILAC ratio, MP2K3 probe-modified peptide [3] | SILAC ratio, SLK probe-modified peptide [4] | SILAC ratio, ULK3 probe-modified peptide [5] | Compound |
| --- | --- | --- | --- | --- | --- |
| 1.4 | 1.1 | 1.4 | 1.3 | 2.3 | O=C(c1ccc(F)cc1)C1CCN(CCn2c(=O)[nH]c3ccccc3c2=O)CC1 [Ketanserin] |
| 1.2 | 1.7 | 1.2 | 1.5 | 1.4 | Fc1ccc(C(=C2CCNCC2)c2ccc(F)cc2)cc1 [RF001, 4-(Bis(4-fluorophenyl)methylene) piperidine] |

| Compound | SILAC ratio, FER probe-modified peptide [1] | SILAC ratio, KS6B2 probe-modified peptide [2] | SILAC ratio, MP2K3 probe-modified peptide [3] | SILAC ratio, SLK probe-modified peptide [4] | SILAC ratio, ULK3 probe-modified peptide [5] |
| --- | --- | --- | --- | --- | --- |
| Cc1nc2sccn2c(=O)c1CCN1CCC(=C(c2ccc(F)cc2)c2ccc(F)cc2)CC1 [Ritanserin] | 7.9 | 1.4 | 1.7 | 3.0 | 1.8 |
